From US20130244875A1, “METHODS AND COMPOSITIONS FOR IMPROVING PLANT HEALTH” (priority 2006, published 2013)
Read-outs that look alike come from different tables or passages of the source.

Key:
[1] = tested on: PR-2, i.e., β-1,3-glucanase; experiment: Induction of PR2 (northern blot) in DMO soybean sprayed with dicamba or DCSA; assay type: in vivo
Method: A 14 hour minimum photoperiod was provided with supplemental light at about 600 μE (micro-Einsteins) as needed. Trials were established in a randomized block design randomized by rate with 4 to 6 replications of each treatment.
All herbicide applications were made with the track sprayer using a Teejet® 9501E flat fan nozzle (Spraying Systems Co, Wheaton, Ill.) with air pressure set at a minimum of 24 psi (pounds per square inch), or 165 kpa (kilopascals)). The spray nozzle was kept at a height of about 16 inches above the top of plant material for spraying. The spray volume was 10 gallons per acre or 93 liters per hectare. Applications were made when plants had reached V-3 stage.
Events carrying a DMO transgene in their genome were grown and treated with dicamba (Clarity®, BASF) at 1 lb/Acre at Post-V3 stage. Leaf samples were harvested after 0, 3, 8, 24, 48, 72 hrs after treatment (HAT) and frozen for further analysis. In another experiment, DMO-containing plants were sprayed with either dicamba or DCSA at 0.25, 0.5 and 1 lb/Acre rate and tissue samples were collected 24 HAT. RNA was extracted and analyzed by northern blot analysis using PR-2, i.e., β-1,3-glucanase as a probe. PR-2 is a pathogenesis-related protein known to degrade […] and thus provide protection against fungal pathogens (U.S. Pat. No. 5,670,706 and Uknes et al., 1992).

[2] = tested on: PR5; experiment: Induction of PR5 (northern blot) by dicamba or DCSA; assay type: in vivo, soybean; conditions: probe specific to PR5; procedures as for PR2
[3] = tested on: transgenic soybean; experiment: Soybean yield field trials with dicamba treatments
Method: The yield enhancing-benefit of DSCA was tested by growing non-transgenic and transgenic plants and applying dicamba to transgenic plants and harvesting the seeds. Non-transgenic and transgenic soybean seeds were planted near the beginning of the growing season in several locations at the time of best possible growth conditions such as soil moisture, temperature, and seeding depth. Across all locations seeds were planted under split-plot design with dicamba treatments as whole-plot effects and events as split-plot effects. The design details were as follows: 6 locations, 2 replications/location, 2 rows/plot, row length 12 feet (+3 ft alley), 9 seeds/foot, 108 seeds/row, 5 events (events 1-4 and a fifth event that was segregating); and 4 treatments as shown below in Table 4. In all, 240 plots were planted at 6 locations (40 per location).
Four non-transgenic border rows were planted all around the trial using a known commercial line such as A3525. Optimum production and management practices known in the art were followed. Maximum pest control and disease control was practiced as needed to prevent confounding effects of dicamba applications. The field was irrigated as needed according to standard practices.
The treatments were: untreated (Untrt); 1 lb/A dicamba at planting followed by 1 lb/A dicamba at V3 growth stage (1×1); 2 lb/A dicamba at planting followed by 2 lb/A dicamba at V3 growth stage (2×2); and 1 lb/A dicamba at planting followed by 1 lb/A dicamba at V3 growth stage followed by 1 lb/A dicamba at R1 stage (1×1×1).

[4] = tested on: transgenic soybean seeds containing the DMO gene; conditions: 22° C., 1 low, 2 moderate, 3 high, N=10
Method: Transgenic soybean seeds containing the DMO gene were germinated in the presence of 100 or 200 mM sodium chloride (NaCl, salt). […] A diglycoamine salt of dicamba (Clarity) was applied to 113.5 g samples of soy in a water based slurry that contained an agricultural dye. Slurry and dye rates were 8 and 0.5 fl oz/cwt. Aliquots of each dicamba solution were added to seeds contained in a glass jar and agitated. After uniform coverage was attained, seeds were placed on towels and allowed to dry. Non-DMO soybeans were treated at rates of 0, 0.5, 2.5, and 5.0 g ai/100 kg. DMO soybeans were treated with 0, 0.5 and 2.5 g ai/100 kg. Seed germination was scored DAT (2 days after treatment) or 5DAT (days after treatment) at 22° C. The germination rate was scored as 1—low, 2—moderate, 3—high for each treatment, N=10.

[5] = 24 hours at 30° C., RP-HPLC
Method: Leaf strip and whole plant studies were performed using liquid chromatography assays to determine metabolism of dicamba to DCSA in soybeans. Leaf tissue was removed from wild-type soybean plants and soybean plants transgenic for the DMO gene and were cut into 1 mm strips, the strips then incubated in 25 mM Tris pH 7.5 with radiolabeled dicamba (14C dicamba) for 24 hours at 30° C. After incubation, the leaf tissue was homogenized with a spinning pestle, acidified, solids pelleted by centrifugation and an aliquot of the supernatant analyzed by RP-HPLC equipped with a radiation detector.

[6] = tested on: soybean plants transgenic for the DMO gene; conditions: DMO transgenic soybean sprayed at up to 2.5 lb/A; various times; RP-HPLC
Method: For whole plant assays, soybean plants transgenic for the DMO gene were treated with 14C dicamba by spraying the plants with a solution containing the 14C dicamba at a rate up to 2.5 lb/A. Leaf samples from the treated plants were collected at various times after treatment and analyzed for the DMO metabolites by RP-HPLC. The leaf tissue was homogenized with a spinning pestle, acidified, solids pelleted by centrifugation and an aliquot of the supernatant analyze by RP-HPLC equipped with a radiation detector.

[7] = 200 mM NaCl, 0.5 g ai/100 kg dicamba seed treatment, 0.0 dicamba 1
[8] = 200 mM NaCl, 2.5 g ai/100 kg dicamba seed treatment, 0.0 dicamba 1

Structure (SMILES): COc1c(Cl)ccc(Cl)c1C(=O)O [Dicamba, 3,6-dichloro-2-methoxybenzoic acid]
- time of peak induction of PR2 ([1]; DMO soybean, dicamba 1 lb/Acre at Post-V3): 48 h
- induction of PR2 at various time points ([1]; DMO soybean, dicamba 1 lb/Acre at Post-V3, 0-72 HAT, no induction in untreated plants): induction of PR2
- induction of PR2 at various rates ([1]; two transgenic soybean lines, 0.25, 0.5 and 1 lb/Acre, 24 hrs after treatment, no induction in untreated or water only): induction of PR2
- induction of PR5 [2]: Induction of PR5
- yield compared with unsprayed controls ([3]; DMO soybean, dicamba 1.5 lb ae/Acre Pre, Post or both, in 4/5 events and 13/15 treatments, 6 locations): an increase or equivalent yield to unsprayed controls
- increase in seed yield ([3]; three DMO soybean events, dicamba treatments vs untreated, average of 15 locations): up to 4.6%
- maturity of dicamba treated plants compared with untreated plant ([3]; transgenic soybean, agronomic and efficacy trials): no delay in maturity
- Germination rating 2DAT ([4]; 100 mM NaCl, 0.5 g ai/100 kg dicamba seed treatment, 0.0 dicamba 1): 2
- Germination rating 5DAT ([4]; 100 mM NaCl, 0.5 g ai/100 kg dicamba seed treatment, 0.0 dicamba 2): 3
- Germination rating 2DAT ([4]; 100 mM NaCl, 2.5 g ai/100 kg dicamba seed treatment, 0.0 dicamba 1): 2
- Germination rating 5DAT ([4]; 100 mM NaCl, 2.5 g ai/100 kg dicamba seed treatment, 0.0 dicamba 2): 3
- Germination rating 2DAT [4, 7]: 1.5
- Germination rating 5DAT [4, 7]: 2
- Germination rating 2DAT [4, 8]: 1.5
- Germination rating 5DAT [4, 8]: 1
- metabolism of radiolabeled dicamba ([5]; leaf strips of transgenic DMO gene containing soybean): metabolized to DCSA and other polar metabolites
- metabolism of radiolabeled dicamba ([5]; leaf strips of wild-type soybean): not in the wild-type soybean plants
- metabolites of 14C dicamba in leaf samples [6]: DCSA is produced as a metabolite of dicamba
